From patent US10449128B2, “Fibrous support comprising particles containing a partially water-soluble active agent, particles, and methods for producing said particles” (priority 2014, dated 2019)

Assay: Solubility in water
Assay type: physicochemical
Text: For the solid compounds, the solubility is defined as the percentage by weight of the compound in a solution at equilibrium with the solid phase at the above temperature T and a pressure of one atmosphere. For the liquid compounds (or solids in the pure state), the aqueous mixtures of which separate into two or more phases, the solubility taken into account is the percentage by weight of the specified compound in the water-rich liquid phase at equilibrium at the operating temperature (temperature at which said particles are manufactured (as the case may be, between 20 and 95° C.)) and a pressure of one atmosphere.

Structure (SMILES)	solubility in water (at 25° C.) [% by weight]	solubility in water (temperature not stated) [%]	solubility in water (at 20° C.)
OC[C@@H](O)[C@H](O)[C@@H](O)CO [xylitol]	30	39	
CCCCN(CCC(=O)OCC)C(C)=O [IR3535, ethyl 3-[acetyl(butyl)amino]propanoate, reference compound]			approximately 7 % by weight
